Entries after “also recorded” stand apart in the source; their conditions may differ. Read-outs that look alike come from different tables or passages of the source.
Assays:
[1] = target: T1, TRAF6WTStrepII-Ubc13FH interaction (Homo sapiens, UniProt Q9Y4K3); assay: ALPHAScreen TRAF6-Ubc13 interaction assay; assay type: binding
T1 construct: RING-Zincfinger1 (RZ1) domain (residues 50-159) of human TRAF6 wildtype; made in house; host or cells: E. coli BL21 codon plus RIPL
T1 sequence (Q9Y4K3 with tags, fused parts or gaps): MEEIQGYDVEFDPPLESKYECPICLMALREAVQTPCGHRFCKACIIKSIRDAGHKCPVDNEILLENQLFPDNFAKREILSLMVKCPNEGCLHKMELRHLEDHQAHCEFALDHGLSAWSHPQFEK

[2] = target: T2, TRAF6-Ubc13 binding in HEK293T cells (Homo sapiens, UniProt Q9Y4K3); assay: Co-immunoprecipitation of HA-TRAF6 and Ubc13 in HEK 293T cells; assay type: cell-based
T2 construct: RING-Zincfinger1 (RZ1) domain (residues 50-159) of human TRAF6 wildtype; expressed in transfected cells; host or cells: HEK 293T
T2 sequence (Q9Y4K3 50-159): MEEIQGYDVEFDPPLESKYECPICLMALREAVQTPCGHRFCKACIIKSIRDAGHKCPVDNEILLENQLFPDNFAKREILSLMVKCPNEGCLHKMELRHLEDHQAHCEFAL
Protocol: To study the interaction of TRAF6 and Ubc13 in cells, 1×10^6 293T cells were seeded and after 18 hours cells were transfected with 1 μg pEF-HA empty or pEF-HA-TRAF6 RZ1 plasmid using the X-tremeGENE HP DNA transfection reagent (Roche). 6 hours upon transfection, cells were treated with compound or DMSO. After 42 hours further incubation, cells were harvested in Co-IP lysis buffer and HA-TRAF6 was immunoprecipitated with anti-HA affinity matrix (Roche). Binding of Ubc13 to TRAF6 was examined in Western Blot analysis.

Row | inhibition of TRAF6-Ubc13 interaction in ALPHAScreen (in words) [1] | Structure (SMILES) | interaction of endogenous Ubc13 with HA-tagged TRAF6 (co-immunoprecipitation) [2] | interaction of endogenous Ubc13 with HA-tagged TRAF6 (co-immunoprecipitation) ([2]; listed as HZM06-04) | interaction of endogenous Ubc13 with HA-tagged TRAF6 (co-immunoprecipitation) ([2]; listed as HZM06-08) | interaction of endogenous Ubc13 with HA-tagged TRAF6 (co-immunoprecipitation) ([2]; listed as HZM06-09)
1 | most prominent effect | Cc1nn(-c2ccc3nnc(C)n3n2)c(C)c1CCC(=O)N1CCC(Cc2ccccc2)C1 (centres unmarked) [HZM06-4, 1-(3-benzylpyrrolidin-1-yl)-3-(3,5-dimethyl-1-(3-methyl-[1,2,4]triazolo[4,3-b]pyridazin-6-yl)-1H-pyrazol-4-yl)propan-1-one] | also active in cells; also recorded: most active analogs | demonstrated inhibition of TRAF6-Ubc13 binding |  | 
2 |  | COc1cccc(CC2CCN(C(=O)CCc3c(C)nn(-c4ccc5nnc(C)n5n4)c3C)CC2)c1 [HZM06-8, 1-(4-(3-methoxybenzyl)piperidin-1-yl)-3-(3,5-dimethyl-1-(3-methyl-[1,2,4]triazolo[4,3-b]pyridazin-6-yl)-1H-pyrazol-4-yl)propan-1-one] | also active in cells; also recorded: most active analogs |  | demonstrated inhibition of TRAF6-Ubc13 binding | 
3 |  | Cc1nn(-c2ccc3nnc(C)n3n2)c(C)c1CCC(=O)N1CCC(Cc2ccc(F)cc2)CC1 [HZM06-9, 1-(4-(4-fluorobenzyl)piperidin-1-yl)-3-(3,5-dimethyl-1-(3-methyl-[1,2,4]triazolo[4,3-b]pyridazin-6-yl)-1H-pyrazol-4-yl)propan-1-one] | also active in cells; also recorded: most active analogs |  |  | demonstrated inhibition of TRAF6-Ubc13 binding
4 |  | Cc1nn(-c2ccc3nnc(C)n3n2)c(C)c1CCC(=O)N1CCC(Cc2ccccn2)CC1 [HZM06-10, 3-(3,5-dimethyl-1-(3-methyl-[1,2,4]triazolo[4,3-b]pyridazin-6-yl)-1H-pyrazol-4-yl)-1-(4-((pyridin-2-yl)methyl)piperidin-1-yl)propan-1-one] | also active in cells |  |  | 

Source: patent US12240854B2, “TRAF 6 inhibitors” (Helmholtz Zentrum München - Deutsches Forschungszentrum für …, priority 2018, dated 2025)
